Experimental data taken from PMC9198545, “Pharmacokinetics and Pharmacodynamics of Fungal Defensin NZX Against Staphylococcus aureus-Induced Mouse Peritonitis Model” (Frontiers in Microbiology, 2022).
Where a SMILES comes first, the peptide text is derived from it. Bridges are numbered along the chain shown (N, C = ends).

Assays:
[1] = Pharmacokinetics in non-infected mice, single tail vein dose; format: in vivo, mouse; conditions: for T1/2, terminal elimination half-life / AUC, area under concentration-time curves / Cmax, peak concentration / MRT, mean residence time / Vd, apparent distribution volume: free-serum NZX; for T1/2, terminal elimination half-life: non-infected female ICR mice, microbiologic assay, non-compartment model; for AUC, area under concentration-time curves / Cmax, peak concentration / MRT, mean residence time / Vd, apparent distribution volume: non-infected mice
Procedure: (§1) The 6-week-old, specific-pathogen-free, female ICR mice (starting weight, 23 to 27 g) were purchased from Beijing Vital River Laboratory Animal Technology Co., Ltd (Beijing, China). The animals were acclimatized for 2 to 3 days before the experiment. The pharmacokinetics of NZX was evaluated in uninfected female ICR mice that received a single tail vein NZX dose of 5, 10, or 20 mg/kg, respectively. After NZX administration, blood samples were collected by orbital venous from five mice per time point at 0.083 to 2 h intervals over 6 h. After centrifugation at 4,000 rpm for 20 min at 4°C, the serum was immediately separated and frozen at −80°C until analysis. Analyses of total serum concentrations of NZX were conducted by a microbiologic assay using S. aureus ATCC 6538p (CICC 10307) as the test strain (Andes et al., [2009]). […] The protein binding of NZX in serum was measured by the ultrafiltration method using Centrifree Filters (Merck Millipore Ltd., Product code: 4104), according to previously described methods by Brinch et al. ([2009]). The concentration of NZX in the ultrafiltrate was determined by HPLC methods.
The pharmacokinetic parameters of NZX in the serum were analyzed using a non-compartment model by WinNonlin software (version 8.1; Pharsight, USA). GraphPad Prism (version 9.0.1) was used for all statistical analyses. One-way ANOVA followed by Dunnett's test was performed to compare the difference between groups. A P-value <0.05 was considered as the significant difference. Kaplan Meier analysis was conducted for the survival curve; log-rank (Mantel-Cox) test analyses were used to compare the survival rate difference.

[2] = Stability in mouse serum by RP-HPLC; format: in vitro ADME; conditions: 25% mouse serum spiked with 100 μg/ml NZX, 37°C, peak area ratio to initial time, read-out: peptide remaining intact
Procedure: The stability of NZX in the mouse serum was determined when placed at 37°C (Wang et al., [2020]). The stock mixture from 25% serum was spiked with 100 μg/ml NZX and vortexed well. The mixtures were incubated at 37°C. At 0, 4, 8, 12, and 24 h, samples were taken out, extracted, and analyzed by reverse-phase high-performance liquid chromatography (RP-HPLC). The results were expressed as the ratio of the peak area of the peptide at various times to that of the initial incubation time.

S. aureus E48 = assay: PK/PD index determination, dose fractionation, sigmoidal Emax model; format: in vivo, mouse
Procedure: A dose fractionation study was applied to determine the PK/PD parameters of ƒAUC/MIC, ƒCmax/MIC, and ƒT% > MIC, and those parameters were predictive of efficacies for NZX against S. aureus E48. […] The correlations between efficacies and each PK/PD index were analyzed by non-linear least-squares regression based on the sigmoidal Emax model (Hill's equation) (Yu et al., [2016]). Hill's equation was defined as follows:
E =[…] × Ce^N/EC50N + Ce^N
where E is the observed antibacterial effect, which describes the change of log10 CFU/ml in the peritoneal fluid after 24 h of NZX treatment compared to the colony counts at the start of therapy. Emax is the change of log10 CFU/ml in the peritoneal fluid after 24 h of NZX treatment when the maximum antibacterial effect has been reached. E0 is the change of log10 CFU/ml in the peritoneal fluid between initial therapy and after 24 h therapy in untreated control animals. Ce is defined as the three PK/PD parameters (ƒAUC/MIC ratio, ƒCmax/MIC ratio, and ƒT % > MIC). EC50 is the value of the PK/PD parameter that is required to achieve 50% of the maximum antibacterial effect. N is the steepness of the fitted concentration-response curve. The coefficient of determination (R^2) between efficacy and the PK/PD parameters was used for determining the goodness of fit of the curves. In addition, the parameters required to achieve bacterial stasis (Cs), 1 log10 kill, and 2 log10 kill were calculated interpolation or extrapolation based on Hill's equation.

[3] = Serum protein binding by ultrafiltration; format: in vitro ADME, mouse; conditions: murine serum, ultrafiltration with Centrifree Filters, ultrafiltrate by HPLC
Procedure: as §1

[4] = free NZX in serum, tail vein 5, 10, 20 mg/kg, range over doses
[5] = 5 mg/kg, 1 dose in 24 h, total dose 0.125 mg
[6] = 5 mg/kg, 2 doses in 24 h, total dose 0.25 mg
[7] = 10 mg/kg, 1 dose in 24 h, total dose 0.25 mg
[8] = 10 mg/kg, 2 doses in 24 h, total dose 0.5 mg
[9] = 20 mg/kg, 1 dose in 24 h, total dose 0.5 mg
[10] = 20 mg/kg, 2 doses in 24 h, total dose 1 mg

Structure (SMILES): CC[C@H](C)[C@@H]1NC(=O)[C@H](CO)NC(=O)[C@H](CCCCN)NC(=O)[C@@H]2CSSC[C@@H](C(=O)N[C@@H](Cc3ccc(O)cc3)C(=O)O)NC(=O)[C@H](CCCCN)NC(=O)[C@@H]3CSSC[C@H](NC(=O)[C@H](CCC(N)=O)NC(=O)[C@H]([C@@H](C)CC)NC(=O)[C@H](CC(=O)O)NC(=O)[C@H](CC(=O)O)NC(=O)[C@H](CCC(=O)O)NC(=O)[C@H](CO)NC(=O)[C@H](Cc4c[nH]c5ccccc45)NC(=O)[C@@H]4CCCN4C(=O)CNC(=O)[C@H](CC(N)=O)NC(=O)[C@@H](NC(=O)CNC(=O)[C@H](Cc4ccccc4)NC(=O)CN)CSSC[C@H](NC(=O)[C@H](Cc4ccc(O)cc4)NC(=O)CNC(=O)CNC(=O)[C@H](CCCCN)NC(=O)[C@H](Cc4ccc(O)cc4)NC(=O)CNC(=O)[C@H](CCCCN)NC1=O)C(=O)N[C@@H](C)C(=O)N[C@@H](CCCNC(=N)N)C(=O)NCC(=O)NCC(=O)N[C@@H](Cc1ccccc1)C(=O)N[C@@H](C(C)C)C(=O)N3)C(=O)N[C@@H](Cc1c[nH]cn1)C(=O)N[C@@H](CC(N)=O)C(=O)N[C@@H](Cc1c[nH]cn1)C(=O)N2 [NZX] (H-GFGCNGPWSEDDIQCHNHCKSIKGYKGGYCARGGFVCKCY-OH; disulfide 4-30, 15-37, 19-39)
- time at which peak concentrations (Cmax) were observed ([1]; after intravenous administration, 5, 10, 20 mg/kg): 5 min
- Cmax over the three dose levels [1, 4]: 2.85 to 20.55 µg/mL
- T1/2 over the three dose levels [1, 4]: 19.2 to 30 min
- Vd over the three dose levels [1, 4]: 1469.10 to 2073.90 mL/kg
- T1/2, terminal elimination half-life ([1]; single intravenous 5 mg/kg, five mice per time point): 19.2 min
- AUC, area under concentration-time curves ([1]; single intravenous 5 mg/kg): 1.11 µg·h/mL
- Cmax, peak concentration ([1]; single intravenous 5 mg/kg): 2.85 µg/mL
- MRT, mean residence time ([1]; single intravenous 5 mg/kg): 19.2 min
- Vd, apparent distribution volume ([1]; single intravenous 5 mg/kg): 2073.90 mL/kg
- T1/2, terminal elimination half-life ([1]; single intravenous 10 mg/kg): 30 min
- AUC, area under concentration-time curves ([1]; single intravenous 10 mg/kg): 3.54 µg·h/mL
- Cmax, peak concentration ([1]; single intravenous 10 mg/kg): 6.53 µg/mL
- MRT, mean residence time ([1]; single intravenous 10 mg/kg): 38.4 min
- Vd, apparent distribution volume ([1]; single intravenous 10 mg/kg): 2045.41 mL/kg
- T1/2, terminal elimination half-life ([1]; single intravenous 20 mg/kg): 27 min
- AUC, area under concentration-time curves ([1]; single intravenous 20 mg/kg): 8.89 µg·h/mL
- Cmax, peak concentration ([1]; single intravenous 20 mg/kg): 20.55 µg/mL
- MRT, mean residence time ([1]; single intravenous 20 mg/kg): 33.6 min
- Vd, apparent distribution volume ([1]; single intravenous 20 mg/kg): 1469.10 mL/kg
- remaining at 24 h, 100 μg/ml [2]: 97%
- fAUC/MIC (S. aureus E48; [5]): 1.11
- fT > MIC (S. aureus E48; [5]): 0.33 h
- fAUC/MIC (S. aureus E48; [6]): 2.22
- fT > MIC (S. aureus E48; [6]): 0.67 h
- fAUC/MIC (S. aureus E48; [7]): 3.54
- fT > MIC (S. aureus E48; [7]): 0.94 h
- fAUC/MIC (S. aureus E48; [8]): 7.08
- fT > MIC (S. aureus E48; [8]): 1.88 h
- fAUC/MIC (S. aureus E48; [9]): 8.89
- fT > MIC (S. aureus E48; [9]): 2.05 h
- fAUC/MIC (S. aureus E48; [10]): 17.79
- fT > MIC (S. aureus E48; [10]): 4.09 h
- Protein binding [3]: 89.25%
